From patent US6914045B2, “Glycopeptide antibiotics” (Wyeth Holdings Corporation, priority 2001, dated 2005)
Converted amounts (≈) assume the structure as drawn.

How the values were obtained:
Assay in all cases: in vitro antibacterial evaluation, MIC by broth dilution
Format in all cases: cell-based
Staphylococcus sp. = conditions: broth dilution, 18 hours at 35° C.
In short: (§1)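 Broth dilution per NCCLS standard M7-A2 in Muller-Hinton II […], with an inoculum of 5×10^5 CFU/mL and antibiotic spanning 64-0.06 μg/mL. The MIC is the lowest concentration that inhibits growth of the organism.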

Streptococcus sp. = conditions: broth dilution, 18 hours at 35° C.
In short: as §1

Enterococcus sp. = conditions: broth dilution, 18 hours at 35° C.
In short: as §1

Escherichia coli = conditions: 18 hours at 35° C.

- MIC Coagulase Negative Staphylococcus (GC 4547) (Staphylococcus sp.): 4 µg/mL (≈ 2.74 µM)
- MIC Coagulase Negative Staphylococcus (GC 4548) (Staphylococcus sp.): 4 µg/mL (≈ 2.74 µM)
- MIC Coagulase Negative Staphylococcus (GC 4549) (Staphylococcus sp.): 4 µg/mL (≈ 2.74 µM)
- MIC Coagulase Negative Staphylococcus (GC 4551) (Staphylococcus sp.): 8 µg/mL (≈ 5.48 µM)
- MIC Coagulase Negative Staphylococcus (GC 6257) (Staphylococcus sp.): 2 µg/mL (≈ 1.37 µM)
- MIC Staphylococcus aureus (ATCC 29213) (Staphylococcus sp.): 4 µg/mL (≈ 2.74 µM)
- MIC Staphylococcus aureus (GC 1131) (Staphylococcus sp.): 8 µg/mL (≈ 5.48 µM)
- MIC Staphylococcus aureus (GC 3051) (Staphylococcus sp.): 4 µg/mL (≈ 2.74 µM)
- MIC Staphylococcus aureus (GC 3053) (Staphylococcus sp.): 4 µg/mL (≈ 2.74 µM)
- MIC Staphylococcus aureus (GC 4541) (Staphylococcus sp.): 4 µg/mL (≈ 2.74 µM)
- MIC Staphylococcus aureus (GC 4542) (Staphylococcus sp.): 4 µg/mL (≈ 2.74 µM)
- MIC Staphylococcus aureus (GC 4544) (Staphylococcus sp.): 8 µg/mL (≈ 5.48 µM)
- MIC Staphylococcus aureus (GC 4545) (Staphylococcus sp.): 4 µg/mL (≈ 2.74 µM)
- MIC Staphylococcus aureus-SMITH (GC 4543) (Staphylococcus sp.): 4 µg/mL (≈ 2.74 µM)
- MIC Staphylococcus aureus (ATCC 29213) (Staphylococcus sp.; strain ATCC 29213): 4 µg/mL (≈ 2.74 µM)
- MIC Staphylococcus aureus (GC 1131) (Staphylococcus sp.; strain GC 1131): 8 µg/mL (≈ 5.48 µM)
- MIC Staphylococcus aureus (GC 3051) (Staphylococcus sp.; strain GC 3051): 4 µg/mL (≈ 2.74 µM)
- MIC Staphylococcus aureus (GC 3053) (Staphylococcus sp.; strain GC 3053): 4 µg/mL (≈ 2.74 µM)
- MIC Staphylococcus aureus (GC 4541) (Staphylococcus sp.; strain GC 4541): 4 µg/mL (≈ 2.74 µM)
- MIC Staphylococcus aureus (GC 4542) (Staphylococcus sp.; strain GC 4542): 4 µg/mL (≈ 2.74 µM)
- MIC Staphylococcus aureus-SMITH (GC 4543) (Staphylococcus sp.; strain GC 4543): 4 µg/mL (≈ 2.74 µM)
- MIC Staphylococcus aureus (GC 4544) (Staphylococcus sp.; strain GC 4544): 8 µg/mL (≈ 5.48 µM)
- MIC Staphylococcus aureus (GC 4545) (Staphylococcus sp.; strain GC 4545): 4 µg/mL (≈ 2.74 µM)
- MIC Coagulase Negative Staphylococcus (GC 4547) (Staphylococcus sp.; strain GC 4547): 4 µg/mL (≈ 2.74 µM)
- MIC Coagulase Negative Staphylococcus (GC 4548) (Staphylococcus sp.; strain GC 4548): 4 µg/mL (≈ 2.74 µM)
- MIC Coagulase Negative Staphylococcus (GC 4549) (Staphylococcus sp.; strain GC 4549): 4 µg/mL (≈ 2.74 µM)
- MIC Coagulase Negative Staphylococcus (GC 4551) (Staphylococcus sp.; strain GC 4551): 8 µg/mL (≈ 5.48 µM)
- MIC Coagulase Negative Staphylococcus (GC 6257) (Staphylococcus sp.; strain GC 6257): 2 µg/mL (≈ 1.37 µM)
- MIC Streptococcus agalactiae (GC 4564) (Streptococcus sp.): 2 µg/mL (≈ 1.37 µM)
- MIC Streptococcus pneumoniae (ATCC 6301) (Streptococcus sp.): 2 µg/mL (≈ 1.37 µM)
- MIC Streptococcus pneumoniae (GC 1894) (Streptococcus sp.): 0.5 µg/mL (≈ 0.343 µM)
- MIC Streptococcus pneumoniae (GC 4565) (Streptococcus sp.): 2 µg/mL (≈ 1.37 µM)
- MIC Streptococcus pyogenes (GC 4563) (Streptococcus sp.): 4 µg/mL (≈ 2.74 µM)
- MIC Streptococcus pneumoniae (ATCC 6301) (Streptococcus sp.; inoculum 5×10^5 CFU/mL, strain ATCC 6301): 2 µg/mL (≈ 1.37 µM)
- MIC Streptococcus pneumoniae (GC 1894) (Streptococcus sp.; inoculum 5×10^5 CFU/mL, strain GC 1894): 0.5 µg/mL (≈ 0.343 µM)
- MIC Streptococcus pyogenes (GC 4563) (Streptococcus sp.; inoculum 5×10^5 CFU/mL, strain GC 4563): 4 µg/mL (≈ 2.74 µM)
- MIC Streptococcus agalactiae (GC 4564) (Streptococcus sp.; inoculum 5×10^5 CFU/mL, strain GC 4564): 2 µg/mL (≈ 1.37 µM)
- MIC Streptococcus pneumoniae (GC 4565) (Streptococcus sp.; inoculum 5×10^5 CFU/mL, strain GC 4565): 2 µg/mL (≈ 1.37 µM)
- MIC Enterococcus avium (GC 4558) (Enterococcus sp.): 8 µg/mL (≈ 5.48 µM)
- MIC Enterococcus faecalis (ATCC 29212) (Enterococcus sp.): 16 µg/mL (≈ 11 µM)
- MIC Enterococcus faecalis (GC 2242) (Enterococcus sp.): 16 µg/mL (≈ 11 µM)
- MIC Enterococcus faecalis (GC 2691) (Enterococcus sp.): 32 µg/mL (≈ 21.9 µM)
- MIC Enterococcus faecalis (GC 3059) (Enterococcus sp.): 32 µg/mL (≈ 21.9 µM)
- MIC Enterococcus faecalis (GC 4552) (Enterococcus sp.): 16 µg/mL (≈ 11 µM)
- MIC Enterococcus faecalis (GC 4553) (Enterococcus sp.): 8 µg/mL (≈ 5.48 µM)
- MIC Enterococcus faecalis (GC 4554) (Enterococcus sp.): 32 µg/mL (≈ 21.9 µM)
- MIC Enterococcus faecalis (GC 6189) (Enterococcus sp.): 16 µg/mL (≈ 11 µM)
- MIC Enterococcus faecium (GC 2243) (Enterococcus sp.): 16 µg/mL (≈ 11 µM)
- MIC Enterococcus faecium (GC 4556) (Enterococcus sp.): 16 µg/mL (≈ 11 µM)
- MIC Enterococcus faecium (GC 4557) (Enterococcus sp.): 4 µg/mL (≈ 2.74 µM)
- MIC Enterococcus faecalis (ATCC 29212) (Enterococcus sp.; strain ATCC 29212): 16 µg/mL (≈ 11 µM)
- MIC Enterococcus faecium (GC 2243) (Enterococcus sp.; strain GC 2243): 16 µg/mL (≈ 11 µM)
- MIC Enterococcus faecalis (GC 4552) (Enterococcus sp.; strain GC 4552): 16 µg/mL (≈ 11 µM)
- MIC Enterococcus faecalis (GC 4553) (Enterococcus sp.; strain GC 4553): 8 µg/mL (≈ 5.48 µM)
- MIC Enterococcus faecalis (GC 4554) (Enterococcus sp.; strain GC 4554): 32 µg/mL (≈ 21.9 µM)
- MIC Enterococcus faecium (GC 4556) (Enterococcus sp.; strain GC 4556): 16 µg/mL (≈ 11 µM)
- MIC Enterococcus faecium (GC 4557) (Enterococcus sp.; strain GC 4557): 4 µg/mL (≈ 2.74 µM)
- MIC Enterococcus avium (GC 4558) (Enterococcus sp.; strain GC 4558): 8 µg/mL (≈ 5.48 µM)
- MIC Enterococcus faecalis (GC 6189) (Enterococcus sp.; strain GC 6189): 16 µg/mL (≈ 11 µM)
- MIC Enterococcus faecalis (GC 2242) (Enterococcus sp.; inoculum 5×10^5 CFU/mL, strain GC 2242): 16 µg/mL (≈ 11 µM)
- MIC Enterococcus faecalis (GC 2691) (Enterococcus sp.; inoculum 5×10^5 CFU/mL, strain GC 2691): 32 µg/mL (≈ 21.9 µM)
- MIC Enterococcus faecalis (GC 3059) (Enterococcus sp.; inoculum 5×10^5 CFU/mL, strain GC 3059): 32 µg/mL (≈ 21.9 µM)
- MIC Escherichia coli (ATCC 25922) (Escherichia coli): 128 µg/mL (≈ 87.7 µM)
- MIC Escherichia coli (GC 4559) (Escherichia coli): 64 µg/mL (≈ 43.8 µM)
- MIC Escherichia coli (GC 4560) (Escherichia coli): 4 µg/mL (≈ 2.74 µM)
SMILES: CC(c1ccccc1)C1NC(=O)CNC(=O)C(CO)NC(=O)C(CC2CNC(=N)N2C2OC(CO)C(O)C(O)C2O)NC(=O)C(CC2CNC(=N)N2)NC(=O)C(Cc2ccc(OC3OC(CO)C(OC4OC(COCc5ccc(OCc6ccccc6)cc5)C(O)C(O)C4O)C(O)C3O)cc2)NC1=O (stereo not shown) [Example 246]
- MIC Staphylococcus haemolyticus (GC 4546) (Staphylococcus sp.): 4 µg/mL (≈ 2.74 µM)
- MIC Staphylococcus haemolyticus (GC 4546) (Staphylococcus sp.; strain GC 4546): 4 µg/mL (≈ 2.74 µM)
